According to article PMC7515829, “HKDC1 C-terminal based peptides inhibit extranodal natural killer/T-cell lymphoma by modulation of mitochondrial function and EBV suppression” (Leukemia, 2020):
Ends that are not written are not given here.

How the values were obtained:
[1] = system: MNCs from ENKTL patients; settings: read-out: IC50 (µM) ENKTL, half-maximal cell death activity, peptides 0.1–15 µM, 6 h, PI staining, FACS, mean ± SEM, n in cell
Text: (§1) We investigated the potential role of HKDC1-based peptides in ENKTL cells that were isolated from the MNCs of ENKTL patients or SNK6 cell line. Three different kinds of HKDC1-based targeting peptides, including the last 15 aa at either the N-terminal (HKN15) or C-terminal (HKC15), or the last eight aa at the C-terminal (HKC8) were selected; four different kinds of cell-penetrating sequences were employed to deliver the HKDC1-based peptides, including Antp (a 16 penetrating residue long sequence from the Drosophila antennapedia-homeodomain), penetration-accelerating segment, TAT (HIV-1 TAT sequence), and Tf (the Tf receptor (TfR) internalization sequence) sequences. All of the aa with the D-configuration (marked as D) were synthesized as retro-inverso peptides. […] We then evaluated the toxic effect of two peptides (including Tf-D-HKC15 and Tf-D-HKC8) on different kinds of primary and cancer cell lines (see details in Table 2). […] We also evaluated the peptide delivery efficiency using ^125I-labeled uptake assay for both Tf-D-HKC8 and Tf-D-HKC15 peptides.
(§2) Measurement of apoptosis and cell death. Apoptosis was evaluated by TUNEL assay using the In Situ Cell Death Detection Kit™ (Roche). Cells were fixed in 4% paraformaldehyde and labeled with TUNEL reagents. Stained cells were photographed by a fluorescence microscope (11). For cell death analysis, the propidium iodide (PI) staining was performed by addition of 6.25 µg/ml of PI to the cells, and cell death was immediately evaluated by FACS analysis (3).

[2] = system: SNK6 cells; settings: read-out: IC50 (µM) SNK6, half-maximal cell death activity; SNK6 cells; peptides 0.1–15 µM, 6 h; PI staining, FACS; mean ± SEM, n in cell (Table 1)
Text: as §1, §2

[3] = system: SNK6 cells; assay: 3-nitrotyrosine formation (ELISA); assay type: cell-based, human; settings: 0.5 µM peptide, 6 h, compared with CTL group, n = 5 (Fig. 3b)
Experimental: Antibodies for β-actin (sc-47778), EBV Ea-D (sc-58121), EBV ZEBRA (BZ1, sc-53904), Ki-67 (sc-101861) and VDAC1 (sc-390996) were obtained from Santa Cruz Biotechnology. Antibodies for HK2 (ab104836), H2AX (ab20669), γH2AX (ab2893) and P-gp (ab129450) were obtained from Abcam. The antibody for HKDC1 (NBP1-82108) was obtained from Novus Biologicals. 3-nitrotyrosine (3-NT) was measured by 3-Nitrotyrosine ELISA Kit (ab116691 from Abcam). Nuclear extracts were prepared using the NE-PER Nuclear and Cytoplasmic Extraction Reagents Kit (Pierce Biotechnology). Protein concentration was measured using the Coomassie Protein Assay Kit (Pierce Biotechnology) per manufacturers’ instructions.

[4] = system: SNK6 xenograft; assay: SNK6 xenograft tumor volume; assay type: in vivo, mouse; settings: nude mice, n = 5
Experimental: To measure malignant SNK6 xenograft growth, 100 µl of 1 × 10^5 SNK6 cells in PBS were mixed with 100 µl growth factor-reduced basement membrane matrix (Matrigel™, BD Biosciences) resulting in 200 µl of solution that was injected subcutaneously along the mouse flank at each intended tumor site. Tumor size was measured using a digital caliper and volume was calculated, and mice were randomly divided into four groups (n = 9 per group) when the tumor volume reached 50–100 mm^3 on day ~18 after tumor inoculation and given treatment as follows: Group 1 (control (CTL)) was intratumorally injected with HBSS buffer (5.33 mM KCl, 0.44 mM KH2PO4, 138 mM NaCl, 4 mM NaHCO3, 0.3 mM Na2HPO4, and 5.6 mM glucose, pH 7.3) containing 0.05% DMSO; Group 2 (Tf-D-HKN15) received HBSS buffer containing 0.05% DMSO with 50 µM Tf-D-HKN15 peptides; Group 3 (Tf-D-HKC15) received HBSS buffer containing 0.05% DMSO with 50 µM Tf-D-HKC15 peptides; Group 4 (Tf-D-HKC8) received HBSS buffer containing 0.05% DMSO with 50 µM Tf-D-HKC8 peptides. The xenografts were injected (two points, 20 µl per tumor) every 2 days. Beginning on the day of inoculation, mouse weight and tumor volume were monitored every 2 days. Mice were monitored for changes in body weight and sacrificed when values fell below 20% of their initial weight; the survival curve was calculated and the final tumor tissues were isolated for biomedical analysis.
To measure the malignant SNK6 xenograft growth, the 100µl of 1x10^5 SNK6 cells in PBS were mixed with 100µl growth factor-reduced basement membrane matrix (Matrigel™, BD Biosciences) resulting in 200µl of solution that was injected subcutaneously along the mouse flank at each intended tumor site. Tumor size was measured using a digital caliper and volume was calculated, and mice were randomly divided into 4 groups (n=9 per group) when the tumor volume reached 50-100 mm^3 on day ~18 after tumor inoculation: Group 1 (CTL) was intratumorally injected with HBSS buffer (5.33 mM KCl, 0.44 mM KH2PO4, 138 mM NaCl, 4 mM NaHCO3, 0.3 mM Na2HPO4, and 5.6 mM glucose, pH 7.3) containing 0.05% DMSO; Group 2 (Tf-D-HKN15) received HBSS buffer containing 0.05% DMSO with 50 µM Tf-D-HKN15 peptides; Group 3 (Tf-D-HKC15) received HBSS buffer containing 0.05% DMSO with 50 µM Tf-D-HKC15 peptides; Group 4 (Tf-D-HKC8) received HBSS buffer containing 0.05% DMSO with 50 µM Tf-D-HKC8 peptides. The xenografts were injected (two points, 20 µL per tumor) every two days. Beginning on the day of inoculation, mouse weight and tumor volume were monitored every 2 days. Mice were monitored for changes in body weight and sacrificed when values fell below 20% of their initial weight, the survival curve was calculated and the final tumor tissues were isolated for biomedical analysis.

[5] = system: SNK6 cells; assay: 8-OHdG formation (DNA damage ELISA); assay type: cell-based, human; settings: 0.5 µM peptide, 6 h, vs CTL, n = 5 (Fig. 3c)
Experimental: (§3) Measurement of DNA breaks. 8-OHdG formation was measured using an OxiSelect™ Oxidative DNA Damage ELISA Kit (Cat No. STA320, from Cell Biolabs Inc.) per manufacturers’ instructions. The formation of γH2AX was measured from nuclear extracts by western blotting using H2AX as the input control (8).

[6] = system: SNK6 cells; settings: 0.5 µM peptide, 6 h, vs CTL, n = 3 (Fig. 5g)
Experimental: Immunostaining. […] The cells were then washed three times and the FITC labeled anti-mouse secondary antibody (1:100) was added for blotting for another 1 hour. After thorough washing, the slides were visualized and photographed, the nuclei of cells were stained with 4’,6-diamidino-2-phenylindole dihydrochloride (DAPI, #D9542, from Sigma), and the positive Ki-67 cells were quantitated.

[7] = target: HKDC1/VDAC1 (Homo sapiens, UniProt P21796); assay: IP/WB association of HKDC1 with VDAC1 in SNK6 cells; assay type: cell-based; parameters: endogenous in cells; host or cells: SNK6; settings: 0.5 µM peptide, 6 h, vs CTL, n = 5 (Fig. 4c, d)
Experimental: Immunoprecipitation (IP) and Western Blotting (WB). Cell lysates were pre-cleared by pre-immune IgG plus Protein A agarose beads for 2 hours, and the supernatants were immunoprecipitated by the indicated antibodies and a 50% slurry of Protein A Agarose beads overnight at 4 °C (9). After washing with buffer containing 50 mM Tris, pH 7.5, 150 mM NaCl, 1% NP-40, and 0.5% deoxycholate with protease inhibitors, proteins were released, separated on 10% SDS-PAGE gels, blotted by primary antibodies, and then simultaneously incubated with the differentially labeled species-specific secondary antibodies, anti-RABBIT IRDye™ 800CW (green) and anti-MOUSE (or goat) ALEXA680 (red). Membranes were scanned and quantitated by the ODYSSEY Infrared Imaging System (LI-COR, NE) (10).

[8] = system: SNK6 cells; assay: ROS formation (CM-H2DCFDA); assay type: cell-based, human; settings: 0.5 µM peptide, 6 h, compared with CTL group, n = 5 (Fig. 3a)
Experimental: Measurement of ROS generation. Treated cells were seeded in a 24-well plate and incubated with 10μM CM-H2DCFDA (Invitrogen) for 45 min at 37°C, and then the intracellular formation of reactive oxygen species (ROS) was measured at excitation/emission wavelengths of 485/530nm using a FLx800 microplate fluorescence reader (Bio-Tek). The data was normalized as arbitrary units (8, 11).

[9] = system: SNK6 cells; assay: Cell proliferation by thymidine incorporation; assay type: cell-based, human; settings: 0.5 µM peptide, 6 h, vs CTL, n = 5 (Fig. 5a)
Experimental: DNA synthesis by [^3H]-thymidine incorporation. Cell proliferation was evaluated as the rate of DNA synthesis by [^3H]-methylthymidine incorporation (17). […] At the end of the treatment, cells were incubated with serum-free media containing ^3H-methylthymidine (0.5 µCi/well) for 2 hours and then washed twice with PBS. Cellular DNA was precipitated using 10% trichloroacetic acid and solubilized with 0.4M NaOH (0.5 ml/well). Incorporation of ^3H-methylthymidine into the DNA was measured in a scintillation counter and was determined as counts per minute (CPM) (8).

[10] = system: EBV; assay: EBV viral genomes/cell by qPCR in SNK6 cells; assay type: cell-based; settings: 0.5 µM peptide, 6 h, vs CTL, n = 4 (Fig. 3i)
Experimental: Detection of EBV copy number. Genomic DNA was extracted from treated SNK-6 cells or SNK-6 tumor tissue in mice using a QIAamp DNA Mini Kit (Qiagen). The EBV DNA copy number was measured through qPCR using 50ng of total DNA with EBV BMRF1 primers (see Table 1), and the results were normalized using cellular β-actin (primers see Table 1) as an internal control (13, 14). The Namalwa cell line, which contains 2 EBV viral genome copies, was used as a standard to prepare calibration curves for both EBV BMRF1 and β-actin genes, and the EBV viral load was presented as the number of viral genomes per cell (15, 16).

[11] = system: SNK6 cells; assay: γH2AX formation (western blot); assay type: cell-based, human; settings: 0.5 µM peptide, 6 h, vs CTL, n = 5 (Fig. 3d)
Experimental: as §3

[12] = system: SNK6 cells; assay: Apoptosis rate by TUNEL assay; assay type: cell-based, human; settings: 0.5 µM peptide, 6 h, compared with CTL group, n = 5 (Fig. 4h)
Experimental: as §2

[13] = system: SNK6 xenograft; assay: Mouse survival, Kaplan–Meier analysis; assay type: in vivo; settings: nude mice, intratumoral 50 µM peptide every 2 days from day ~18, compared with CTL group, n = 9
Experimental: Statistical analysis. The data was given as mean ± SEM; all of the experiments were performed at least in quadruplicate unless otherwise indicated. One-way ANOVA followed by the Bonferroni post hoc test was used to determine statistical significance of different groups. The mouse survival curve was determined through Kaplan-Meier survival analysis using SPSS 22 software, and a P value < 0.05 was considered significant (8).

Sequence of HKDC1/VDAC1 (P21796 2-283 limits assumed): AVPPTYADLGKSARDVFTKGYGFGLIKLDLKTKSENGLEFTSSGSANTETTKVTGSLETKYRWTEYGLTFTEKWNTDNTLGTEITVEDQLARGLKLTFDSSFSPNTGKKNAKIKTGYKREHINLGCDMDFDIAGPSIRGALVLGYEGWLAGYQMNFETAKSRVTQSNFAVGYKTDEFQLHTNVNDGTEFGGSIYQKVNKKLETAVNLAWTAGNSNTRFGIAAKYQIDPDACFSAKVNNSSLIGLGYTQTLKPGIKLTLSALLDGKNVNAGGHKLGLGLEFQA

For GKPILFF-LQQAQKEN [PAS-D-HKC8], the IC50 [1] was 1.1 ± 0.3 µM and the IC50 [2] was 1.3 ± 0.3 µM.
GKPILFFLQQAQKEN [PAS-HKC8] gave an IC50 [1] of 1.4 ± 0.4 µM and an IC50 [2] of 1.4 ± 0.3 µM.
For GYGRKKRRQRRRG-LQQAQKEN [TAT-D-HKC8], the IC50 [1] was 1.5 ± 0.7 µM and the IC50 [2] was 1.7 ± 0.5 µM.
For GYGRKKRRQRRRGLQQAQKEN [TAT-HKC8], the IC50 [1] was 1.9 ± 0.4 µM and the IC50 [2] was 2 ± 0.4 µM.
“HAIYPRH-EILNKEKK [Tf-D-Scram, reference compound]” gave an IC50 [1] greater than 15 µM and an IC50 [2] greater than 15 µM.
For HAIYPRH-MFAVHLMAFYFSKLK [Tf-D-HKN15], the 3-nitrotyrosine formation [3] was “no effect”, the “tumor volumes on day 36” value ([4]; intratumoral 50 µM peptide every 2 days from day ~18, day 36, vs CTL) was “no effect” and the “tumor volumes on day 48” value ([4]; intratumoral 50 µM peptide every 2 days from day ~18, day 48, vs CTL) was “no effect”. For the same substance, the 8-OHdG formation [5] was “no effect”, the “cell proliferation by quantitation of Ki-67 positive cells” value [6] was “no effect” and the “association of HKDC1 with VDAC1” value [7] was “no effect”. For the same substance, the ROS formation [8] was “no effect”, the IC50 [1] was greater than 15 µM and the IC50 [2] was greater than 15 µM. The thymidine incorporation [9] was “no effect”, the EBV genome copies [10] was “no effect” and the γH2AX formation [11] was “no effect”. The apoptosis rate increase [12] was “no effect” and the mouse survival [13] was “little effect”.
Substance “HAIYPRHEILNKEKK [Tf-Scram, reference compound]” has an IC50 [1] greater than 15 µM and an IC50 [2] greater than 15 µM.
Work on HAIYPRHITAVAKRLQQAQKEN [Tf-HKC15] yielded an IC50 [1] of 1.2 ± 0.4 µM and an IC50 [2] of 1.4 ± 0.3 µM.
Substance HAIYPRHLQQAQKEN [Tf-HKC8] has an IC50 [1] of 0.5 ± 0.2 µM and an IC50 [2] of 0.7 ± 0.2 µM.
For HAIYPRHMFAVHLMAFYFSKLK [Tf-HKN15], the IC50 [1] was greater than 15 µM and the IC50 [2] was greater than 15 µM.
RQIKIWFQNRRMKWKK-LQQAQKEN [Antp-D-HKC8] gave an IC50 [1] of 1 ± 0.3 µM and an IC50 [2] of 1.2 ± 0.4 µM.
Substance RQIKIWFQNRRMKWKKLQQAQKEN [Antp-HKC8] has an IC50 [1] of 1.3 ± 0.4 µM and an IC50 [2] of 1.3 ± 0.3 µM.
